Measurements reported in article PMC11257039, “VCP activator reverses nuclear proteostasis defects and enhances TDP-43 aggregate clearance in multisystem proteinopathy models” (The Journal of Clinical Investigation, 2024).
Values joined by “and” are separate entries in the source; they are usually repeats but may differ in a detail not shown here. Identical values can stand only once.

Experiments:
WT VCP + Ufd1/Nploc4 = target: T1, WT VCP + Ufd1/Nploc4 (Mus musculus, UniProt Q01853); assay: Kinase-Glo ATPase assay, WT VCP with UFD1/NPLOC4 (UN); format: biochemical; conditions: for ATP consumed: WT VCP with UN
T1 construct: in the full-length recombinant VCP; His (N); made in house; host or cells: E. coli (VCP: BL21-CodonPlus (DE3)-RIL; UFD1 and NPLOC4: E. coli (DE3), purified by the MD Anderson core)
Experimental: (§1) Experiments with varied activator concentration and screening were measured using the Kinase-Glo Luminescent Kinase Assay (Promega). Reactions were incubated at 25°C for 1 hour then reduced to 4°C in a thermocycler consisting of 50 nM of recombinant VCP with or without 50 nM UFD1/NPLOC4 in 50 uL ATPase buffer (25 mM HEPES, pH 7.5, 100 mM NaCl, 10 mM MgCl2) at 2% DMSO with 62.5 μM ATP and a range of activator concentrations (Gibco, Sigma-Aldrich). Equal volumes of reaction and Kinase-Glo reagent were incubated for 20 minutes at room temperature in a 96 well white flat bottom plate (Corning). Luminescence was measured in a microplate reader (Spark 20M, Tecan).
(§2) Experiments with varied compound concentration were fit to a 3-parameter dose curve with asymmetric profile likelihood 95% confidence intervals in GraphPad Prism 9 (GraphPad). Experiments with varied ATP concentration were fit to a Michaelis-Menten model with asymmetric profile likelihood 95% confidence intervals. Significance was determined for experiments with fixed compound or fixed ATP concentration using a linear mixed-effects model.

R155H VCP = target: T2, R155H VCP (Mus musculus, UniProt Q01853, R155H); assay: MESG-PNP ATPase assay, recombinant R155H VCP; format: biochemical; conditions: VCP Mutation R155H; replicate values
T2 construct: in the full-length recombinant VCP; His (N); made in house; host or cells: Escherichia coli BL21-CodonPlus (DE3)-RIL
Experimental: (§3) All other experiments were performed using the EnzCheck phosphatase assay kit (Molecular Probes). ATPase activity was measured in a 96-well flat bottom plate (Thermo Fisher Scientific). 50 nM VCP was incubated in 100 μL ATPase buffer with 2% DMSO with 25 μM compound and various ATP concentrations. The absorbance at 360 ± 5 nm was measured for more than 15 minutes at 25°C. Phosphate release was quantified based on a phosphate standard curve performed on the same plate. Initial enzyme velocity was determined by fitting the linear portion of the data to a linear regression model.
(§4) Figure S8. VCP activators variable effect on ATPase activity of MSP associated mutations in recombinant VCP. ATPase activity of 50 nM recombinant VCP protein was measured using an MESG-PNP assay upon treatment with 25 μM compound versus 2% DMSO control at 1mM ATP for WT (also shown in Fig. 5c), A232E, R155H, and R159H (n=3 with 3 technical replicated per experiment; points are expressed as beta ± SE, linear effects model: *P<0.05,**P<0.01; ***P<0.001; ****P<0.0001).

luciferase = assay: Luciferase counter assay: Kinase-Glo with 62.5 μM ATP without recombinant VCP; format: biochemical; conditions: for measured ATP consumed (nmol) without VCP: replicate values
Experimental: as §1
(A-D) Measured ATP as determined by a Kinase-Glo assay of 62.5μM ATP in the presence of increasing concentrations of compound without recombinant VCP present. (for all panels: n=3 with 4 technical replicates per experiment, points are expressed as beta ± SE, linear mixed effects model, P>0.05 for each […]
(1 picture or pasted object on this page, not shown here)

26S proteasome = 26S proteasome activity, Suc-LLVY-AMC fluorescence; format: biochemical, human; conditions: 25 μM compound, versus 1% DMSO
Experimental: 26S proteasome and substrate suc-LLVY-AMC were purchased (LifeSensors, Inc.). Fluorescence was measured in a microplate reader using a 96-well optical bottom black plate (Thermo Fisher Scientific). […] 26S proteasome was incubated in 100 μL proteasome buffer (20 mM HEPES, pH 7.5, 0.5 mM EDTA, 0.05% Triton-X) with 100 μM suc-LLVY-AMC, 1 mM ATP, and 25 μM compound or 1% DMSO. Fluorescence was measured at excitation 380 ± 10nm and emission 460 ± 10nm for more than 15 minutes at 37°C. Initial velocity was determined by fitting the linear portion of the data to a linear regression model. Significance was determined for using a linear mixed-effects model.

recombinant WT VCP [1] = target: T3, recombinant WT VCP (Mus musculus, UniProt Q01853); assay: MESG-PNP (EnzCheck) phosphate release ATPase assay, WT VCP; format: biochemical; conditions: for ATPase activity v0/ET: 25 μM compound, replicate experiments
T3 construct: in the full-length recombinant VCP; His (N); made in house; host or cells: Escherichia coli BL21-CodonPlus (DE3)-RIL
Experimental: as §3, §2

R159H VCP = target: T4, R159H VCP (Mus musculus, UniProt Q01853, R159H); assay: MESG-PNP ATPase assay, recombinant R159H VCP; format: biochemical; conditions: VCP Mutation R159H; replicate values
T4 construct: in the full-length recombinant VCP; His (N); made in house; host or cells: Escherichia coli BL21-CodonPlus (DE3)-RIL
Experimental: as §3, §4

[2] = system: WT HeLa cells expressing GFP-TDP-4FL; assay: Flow cytometry of GFP-TDP-4FL integrated fluorescence, WT HeLa; format: cell-based; conditions: for Integrated Fluorescence WT (Normalized to CHX): 4 μM MG132 17 h
Experimental: Drug treatments were performed on neurons 7 days after lentiviral transduction and 14 days after neuronal induction. HeLa cells were collected using trypsin and pelleted at 1000g for 3 minutes. Cell pellets were resuspended in colorless DMEM (Invitrogen) supplemented with 2% FBS and filtered through a BD tube with cell strainer (BD Biosciences) for flow cytometry analysis on LSR II (BD Biosciences). Data analysis was performed on FlowJo v10 software. Integrated fluorescence intensity was determined by multiplying percent positive GFP and GFP median fluorescence values.

A232E VCP = target: T5, A232E VCP (Mus musculus, UniProt Q01853, A232E); assay: MESG-PNP ATPase assay, recombinant A232E VCP; format: biochemical; conditions: VCP Mutation A232E; replicate values
T5 construct: in the full-length recombinant VCP; His (N); made in house; host or cells: Escherichia coli BL21-CodonPlus (DE3)-RIL
Experimental: as §3, §4

recombinant WT VCP [3] = target: T3, recombinant WT VCP; assay: Kinase-Glo ATPase assay, recombinant WT VCP; format: biochemical; conditions: for ATP consumed: WT VCP no UN
Experimental: as §1, §2

T5 sequence (Q01853 whole entry A232E): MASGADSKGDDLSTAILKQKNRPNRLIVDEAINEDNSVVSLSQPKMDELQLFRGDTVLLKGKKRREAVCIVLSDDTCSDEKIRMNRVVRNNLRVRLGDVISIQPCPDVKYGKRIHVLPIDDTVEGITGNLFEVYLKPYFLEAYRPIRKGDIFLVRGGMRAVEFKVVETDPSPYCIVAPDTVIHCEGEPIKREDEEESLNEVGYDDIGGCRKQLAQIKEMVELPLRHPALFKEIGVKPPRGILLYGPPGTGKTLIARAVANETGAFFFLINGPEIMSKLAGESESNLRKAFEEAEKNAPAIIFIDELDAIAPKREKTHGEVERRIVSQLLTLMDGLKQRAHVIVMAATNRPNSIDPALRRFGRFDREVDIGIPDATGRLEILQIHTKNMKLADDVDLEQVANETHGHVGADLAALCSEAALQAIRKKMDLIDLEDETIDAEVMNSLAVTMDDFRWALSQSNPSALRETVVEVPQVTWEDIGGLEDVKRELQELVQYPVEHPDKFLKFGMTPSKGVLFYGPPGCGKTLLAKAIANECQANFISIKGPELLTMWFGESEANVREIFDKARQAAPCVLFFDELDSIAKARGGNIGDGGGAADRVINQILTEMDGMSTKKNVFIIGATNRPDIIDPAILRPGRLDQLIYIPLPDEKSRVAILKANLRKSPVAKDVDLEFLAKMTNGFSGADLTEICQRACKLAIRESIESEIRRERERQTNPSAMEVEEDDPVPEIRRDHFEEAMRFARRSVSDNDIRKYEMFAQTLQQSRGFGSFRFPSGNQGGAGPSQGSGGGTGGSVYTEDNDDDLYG
T3 sequence (Q01853 whole entry): as the sequence (Q01853 whole entry A232E) above, with E232A counted along it
T1 sequence (Q01853 whole entry): as the sequence (Q01853 whole entry A232E) above, with E232A counted along it
T1 sequence (Q92890 whole entry partner): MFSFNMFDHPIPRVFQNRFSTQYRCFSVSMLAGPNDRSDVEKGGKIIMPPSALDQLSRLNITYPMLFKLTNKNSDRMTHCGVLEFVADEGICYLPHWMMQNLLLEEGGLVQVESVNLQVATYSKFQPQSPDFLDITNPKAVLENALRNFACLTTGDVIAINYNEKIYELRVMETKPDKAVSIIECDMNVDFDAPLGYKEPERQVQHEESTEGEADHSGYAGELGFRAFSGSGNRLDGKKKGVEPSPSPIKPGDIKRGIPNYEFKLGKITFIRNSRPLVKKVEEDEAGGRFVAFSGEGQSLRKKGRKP
T1 sequence (Q8TAT6 whole entry partner): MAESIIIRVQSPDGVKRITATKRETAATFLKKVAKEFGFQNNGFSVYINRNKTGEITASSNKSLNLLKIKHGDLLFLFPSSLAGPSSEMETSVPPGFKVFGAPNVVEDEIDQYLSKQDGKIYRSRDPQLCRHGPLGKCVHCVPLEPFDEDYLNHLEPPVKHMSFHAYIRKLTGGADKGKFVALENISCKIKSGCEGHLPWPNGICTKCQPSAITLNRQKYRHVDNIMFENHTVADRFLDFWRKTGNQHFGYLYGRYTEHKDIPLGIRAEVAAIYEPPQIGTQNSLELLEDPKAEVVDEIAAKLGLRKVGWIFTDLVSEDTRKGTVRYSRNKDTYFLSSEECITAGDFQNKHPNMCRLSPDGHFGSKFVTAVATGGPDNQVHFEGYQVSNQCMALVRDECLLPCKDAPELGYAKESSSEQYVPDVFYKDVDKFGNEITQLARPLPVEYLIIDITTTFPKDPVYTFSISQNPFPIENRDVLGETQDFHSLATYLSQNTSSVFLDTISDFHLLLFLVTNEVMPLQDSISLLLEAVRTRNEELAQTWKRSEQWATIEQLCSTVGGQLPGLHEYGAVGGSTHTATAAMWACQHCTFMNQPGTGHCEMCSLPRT
T4 sequence (Q01853 whole entry R159H): as the sequence (Q01853 whole entry A232E) above, with R159H, E232A counted along it
T2 sequence (Q01853 whole entry R155H): as the sequence (Q01853 whole entry A232E) above, with R155H, E232A counted along it

## O=C(CSc1nc2ccccc2c(=O)n1NC(=O)c1ccccc1)c1ccc(Cl)cc1 [UP12]
WT VCP + Ufd1/Nploc4
  change in EC50 with UN compared to without UN: non-significant decreases
  change in maximum percent activity with UN compared to without UN: significantly decreased
WT VCP + Ufd1/Nploc4; WT VCP + Ufd1/Nploc4, 1:1 molar ratio
  EC50: 648 nM
WT VCP + Ufd1/Nploc4; 0.20 μM compound
  ATP consumed: 1.300 nmol and 1.366 nmol and 1.077 nmol
WT VCP + Ufd1/Nploc4; 0.39 μM compound
  ATP consumed: 1.441 nmol and 1.399 nmol and 1.156 nmol
WT VCP + Ufd1/Nploc4; 0.78 μM compound
  ATP consumed: 1.422 nmol and 1.447 nmol and 1.306 nmol
WT VCP + Ufd1/Nploc4; 1.56 μM compound
  ATP consumed: 1.523 nmol and 1.537 nmol and 1.366 nmol
WT VCP + Ufd1/Nploc4; 3.13 μM compound
  ATP consumed: 1.496 nmol and 1.548 nmol and 1.334 nmol
WT VCP + Ufd1/Nploc4; 6.25 μM compound
  ATP consumed: 1.632 nmol and 1.536 nmol and 1.400 nmol
WT VCP + Ufd1/Nploc4; 12.5 μM compound
  ATP consumed: 1.663 nmol and 1.623 nmol and 1.427 nmol
WT VCP + Ufd1/Nploc4; 25 μM compound
  ATP consumed: 1.544 nmol and 1.491 nmol and 1.364 nmol
R155H VCP
  ATPase activity, nmol Pi / nmol VCP / s: 0.592 nmol Pi / nmol VCP / s and 0.458 nmol Pi / nmol VCP / s and 0.468 nmol Pi / nmol VCP / s
luciferase; 62.5 μM ATP, increasing concentrations of compound
  luciferase activity (measured ATP without VCP): did not inhibit luciferase activity
luciferase; compound 6.25 μM
  measured ATP consumed (nmol) without VCP: 3.153 nmol and 3.247 nmol and 3.452 nmol and 3.556 nmol and 3.276 nmol and 3.463 nmol and 3.531 nmol and 3.381 nmol and 3.251 nmol and 3.386 nmol and 3.279 nmol and 3.064 nmol
luciferase; compound 12.5 μM
  measured ATP consumed (nmol) without VCP: 3.163 nmol and 3.366 nmol and 3.532 nmol and 3.606 nmol and 3.351 nmol and 3.662 nmol and 3.334 nmol and 3.435 nmol and 3.323 nmol and 3.733 nmol and 3.427 nmol and 3.076 nmol
luciferase; compound 25 μM
  measured ATP consumed (nmol) without VCP: 3.243 nmol and 3.452 nmol and 3.683 nmol and 3.709 nmol and 3.371 nmol and 3.627 nmol and 3.582 nmol and 3.248 nmol and 3.318 nmol and 3.356 nmol and 3.238 nmol and 3.225 nmol
luciferase; compound 50 μM
  measured ATP consumed (nmol) without VCP: 3.199 nmol and 3.663 nmol and 3.673 nmol and 3.419 nmol and 3.053 nmol and 3.725 nmol and 3.509 nmol and 3.086 nmol and 3.588 nmol and 3.442 nmol and 3.634 nmol and 3.113 nmol
luciferase; compound 100 μM
  measured ATP consumed (nmol) without VCP: 3.128 nmol and 3.612 nmol and 3.580 nmol and 3.474 nmol and 3.673 nmol and 3.565 nmol and 3.583 nmol and 2.931 nmol and 3.556 nmol and 3.479 nmol and 3.581 nmol and 3.246 nmol
26S proteasome
  % activity of 26S proteasome: 94.3% and 79.8% and 83.9% and 107.1% and 92.8% and 109.7%
Recombinant WT VCP [1]; 25 μM activator
  kcat (nmol Pi / nmol VCP / s) (95% CI): 0.309 (0.269, 0.356) nmol Pi / nmol VCP / s
Recombinant WT VCP [1]; 25 μM activator, versus DMSO
  increase in kcat: about 25%
Recombinant WT VCP [1]; [ATP] 62.5 μM
  ATPase activity v0/ET: 0.164 nmol Pi / nmol VCP / s and 0.127 nmol Pi / nmol VCP / s and 0.154 nmol Pi / nmol VCP / s
Recombinant WT VCP [1]; [ATP] 125 μM
  ATPase activity v0/ET: 0.234 nmol Pi / nmol VCP / s and 0.182 nmol Pi / nmol VCP / s and 0.208 nmol Pi / nmol VCP / s
Recombinant WT VCP [1]; [ATP] 250 μM
  ATPase activity v0/ET: 0.282 nmol Pi / nmol VCP / s and 0.230 nmol Pi / nmol VCP / s and 0.291 nmol Pi / nmol VCP / s
Recombinant WT VCP [1]; [ATP] 500 μM
  ATPase activity v0/ET: 0.289 nmol Pi / nmol VCP / s and 0.232 nmol Pi / nmol VCP / s and 0.265 nmol Pi / nmol VCP / s
Recombinant WT VCP [1]; [ATP] 1000 μM
  ATPase activity v0/ET: 0.320 nmol Pi / nmol VCP / s and 0.260 nmol Pi / nmol VCP / s and 0.293 nmol Pi / nmol VCP / s
R159H VCP
  ATPase activity, nmol Pi / nmol VCP / s: 0.579 nmol Pi / nmol VCP / s and 0.685 nmol Pi / nmol VCP / s and 0.536 nmol Pi / nmol VCP / s
[2]; then CHX with 5 μM compound 4 h
  Integrated Fluorescence WT (Normalized to CHX): 0.972 and 1.128 and 1.069 and 1.136 and 1.032 and 0.941
[2]; then CHX with 20 μM compound 4 h
  Integrated Fluorescence WT (Normalized to CHX): 0.894 and 0.971 and 1.353 and 0.977 and 0.848 and 0.689
[2]; MG132, then CHX with 5 or 20 μM activator
  clearance of GFP-TDP-4FL aggregates (integrated fluorescence): did not have a significant effect
A232E VCP
  ATPase activity, nmol Pi / nmol VCP / s: 1.130 nmol Pi / nmol VCP / s and 0.838 nmol Pi / nmol VCP / s and 0.963 nmol Pi / nmol VCP / s
Recombinant WT VCP [3]; EC50 (μM) (95% CI), WT VCP without UN, 50 nM VCP, 62.5 μM ATP, 2% DMSO
  EC50: 1.57 µM
Recombinant WT VCP [3]; 0.20 μM compound
  ATP consumed: 0.972 nmol and 0.921 nmol and 1.113 nmol
Recombinant WT VCP [3]; 0.39 μM compound
  ATP consumed: 1.046 nmol and 0.999 nmol and 1.126 nmol
Recombinant WT VCP [3]; 0.78 μM compound
  ATP consumed: 1.028 nmol and 1.027 nmol and 1.185 nmol
Recombinant WT VCP [3]; 1.56 μM compound
  ATP consumed: 1.050 nmol and 1.001 nmol and 1.186 nmol
Recombinant WT VCP [3]; 3.13 μM compound
  ATP consumed: 0.987 nmol and 1.173 nmol and 1.366 nmol
Recombinant WT VCP [3]; 6.25 μM compound
  ATP consumed: 1.164 nmol and 1.158 nmol and 1.362 nmol
Recombinant WT VCP [3]; 12.5 μM compound
  ATP consumed: 1.242 nmol and 1.397 nmol and 1.210 nmol
Recombinant WT VCP [3]; 25 μM compound
  ATP consumed: 1.202 nmol and 1.262 nmol and 1.324 nmol
Recombinant WT VCP [3]; in vitro validation of 106 screen hits
  recombinant WT VCP ATPase activity: significantly increased
Recombinant WT VCP [3]; maximum, WT VCP without UN
  increase of VCP activity: 39%
